The results in this text go back to patent publication US20240158446A1, “CYCLIC COMPOUND HAVING SELECTIVE INHIBITORY ACTION ON KRAS OVER HRAS AND NRAS” (CHUGAI SEIYAKU KABUSHIKI KAISHA, priority 2021, published 2024).

Assay [1] has as its target GDP-bound NRAS wild-type protein (Homo sapiens, UniProt P01111). Description: Binding to NRAS by surface plasmon resonance (SPR), Single Cycle Kinetics. As to conditions: ratio of KD for GDP-bound NRAS wild-type protein to KD for KRAS, SPR. (SPR reads the build-up and loss of mass on a sensor chip optically.)
The target of assay [2] is GDP-bound HRAS wild-type protein (Homo sapiens, UniProt P01112). Description: Binding to HRAS by surface plasmon resonance (SPR), Single Cycle Kinetics. Particulars: ratio of KD for GDP-bound HRAS wild-type protein to KD for KRAS, SPR.
Assay [3] relates to human lung cancer strain NCI-H441. Briefly: cells. Particulars: NCI-H441, 96 h, read-out: NCI-H441 IC50 (nM), NCI-H441 cell proliferation, 4 days, CellTiter-Glo. Background: ATP-based viability assays read luminescence as a measure of living cells.
In assay [4] the target is GDP-bound KRAS wild-type protein (Homo sapiens, UniProt P01116). Briefly: Binding to KRAS by surface plasmon resonance (SPR), Single Cycle Kinetics. Particulars: SPR, Single Cycle Kinetics, GDP-bound KRAS wild-type protein; read-out: KRAS KD.
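For IC50 in this document: cell proliferation inhibition after four days measured by CellTiter-Glo.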

Chain of GDP-bound HRAS wild-type protein (P01112 whole entry): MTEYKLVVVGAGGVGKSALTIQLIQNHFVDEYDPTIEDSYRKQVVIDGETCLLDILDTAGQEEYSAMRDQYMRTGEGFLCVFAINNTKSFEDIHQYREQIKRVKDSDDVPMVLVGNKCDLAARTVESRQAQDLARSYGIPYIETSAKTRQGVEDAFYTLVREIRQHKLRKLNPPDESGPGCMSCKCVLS
Chain of GDP-bound KRAS wild-type protein (P01116 whole entry): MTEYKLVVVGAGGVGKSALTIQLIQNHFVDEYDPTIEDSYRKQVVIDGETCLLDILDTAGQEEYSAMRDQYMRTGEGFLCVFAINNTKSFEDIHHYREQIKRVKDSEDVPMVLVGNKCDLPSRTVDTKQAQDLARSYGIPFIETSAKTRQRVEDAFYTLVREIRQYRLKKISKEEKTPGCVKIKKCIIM
Chain of GDP-bound NRAS wild-type protein (P01111 whole entry): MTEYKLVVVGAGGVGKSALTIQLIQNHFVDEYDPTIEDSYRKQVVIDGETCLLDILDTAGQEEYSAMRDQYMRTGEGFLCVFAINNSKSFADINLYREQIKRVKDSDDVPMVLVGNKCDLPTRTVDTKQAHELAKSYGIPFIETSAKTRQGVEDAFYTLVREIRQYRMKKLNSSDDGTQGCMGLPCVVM

Consider `CCO[C@@H]1C[C@H]2C(=O)NC3(CCC3)C(=O)N(C)[C@@H](C3CCCC3)C(=O)N(C)[C@H](C(=O)N(C)CC)CC(=O)N(C)[C@@H](C3CC3)C(=O)N[C@@H]([C@@H](C)CC)C(=O)N(C)CC(=O)N(C)[C@H]3C/C=C\CCN(C3=O)[C@@H](Cc3ccc(C(F)(F)F)cc3)C(=O)N(C)CC(=O)N[C@@H](CCc3ccc(C(F)(F)F)c(OC)c3)C(=O)N2C1` [PP2021], for which the “NRAS/KRAS (KD ratio)” value in assay [1] is “A (a compound having 10 or more and less than 20 is denoted as A)”. In addition, the “HRAS/KRAS (KD ratio)” value in assay [2] was “B (a compound having 3 or more and less than 10 is denoted as B)”. Also, in assay [3], the IC50 stood at 4.9 nM. For the same compound, the equilibrium dissociation constant (Kd) (usually the constant that tells how readily two partners part at equilibrium) in assay [4] turned out to be 0.12 nM.
As to `CCOC[C@H]1C(=O)N[C@@H]([C@@H](C)CC)C(=O)N(C)CC(=O)N(C)[C@H]2C/C=C\CCN(C2=O)[C@@H](Cc2ccc(C(F)(F)F)cc2)C(=O)N(C)CC(=O)N[C@@H](CCc2ccc(C(F)(F)F)c(OC)c2)C(=O)N2C[C@@H](C)C[C@H]2C(=O)NC2(CCC2)C(=O)N(C)[C@@H](C2CCCC2)C(=O)N(C)[C@H](C(=O)N(C)CC)CC(=O)N1C` [PP2026], the “NRAS/KRAS (KD ratio)” value in assay [1] is “A (a compound having 10 or more and less than 20 is denoted as A)”. Moreover, the “HRAS/KRAS (KD ratio)” value in assay [2] is “A (a compound having 10 or more and less than 20 is denoted as A)”. Moreover, the IC50 in assay [3] was 22.6 nM. Further, the dissociation constant (Kd) in assay [4] turned out to be 0.089 nM.
For the compound `CCCN(C)C(=O)[C@@H]1CC(=O)N(C)[C@@H](CC(F)F)C(=O)N[C@@H]([C@@H](C)CC)C(=O)N(C)CC(=O)N(C)[C@H]2C/C=C\CCN(C2=O)[C@@H](Cc2ccc(C(F)(F)F)cc2)C(=O)N(C)CC(=O)N[C@@H](CCc2cc(F)c(C(F)(F)F)c(F)c2)C(=O)N2C[C@H](OCC)C[C@H]2C(=O)NC2(CC(C)(C)C2)C(=O)N(C)[C@@H](C2CCCC2)C(=O)N1C` [PP2030], in assay [1], the “NRAS/KRAS (KD ratio)” value is “A (a compound having 10 or more and less than 20 is denoted as A)”. For the same compound, the “HRAS/KRAS (KD ratio)” value in assay [2] was “A (a compound having 10 or more and less than 20 is denoted as A)”. Also, the IC50 in assay [3] amounted to 4.5 nM. The Kd in assay [4] worked out at 0.12 nM.
Consider `CCCN(C)C(=O)[C@@H]1CC(=O)N(C)[C@@H](COCC)C(=O)N[C@@H]([C@@H](C)CC)C(=O)N(C)CC(=O)N(C)[C@H]2C/C=C\CCN(C2=O)[C@@H](Cc2ccc(C(F)(F)F)cc2)C(=O)N(C)CC(=O)N[C@@H](CCc2cc(F)c(C(F)(F)F)c(F)c2)C(=O)N2C[C@H](OCC)C[C@H]2C(=O)NC2(CC(C)(C)C2)C(=O)N(C)[C@@H](C2CCCC2)C(=O)N1C` [PP2031], for which the “NRAS/KRAS (KD ratio)” value in assay [1] was “B (a compound having 3 or more and less than 10 is denoted as B)”. Also, the “HRAS/KRAS (KD ratio)” value in assay [2] is “B (a compound having 3 or more and less than 10 is denoted as B)”. Besides, in assay [3], the IC50 stood at 5.5 nM. Also, in assay [4], the Kd amounted to 0.14 nM.
Turning to `CCOC[C@H]1C(=O)N[C@@H]([C@@H](C)CC)C(=O)N(C)CC(=O)N(C)[C@H]2C/C=C\CCN(C2=O)[C@@H](Cc2ccc(C(F)(F)F)cc2)C(=O)N(C)CC(=O)N[C@@H](CCc2cc(F)c(C(F)(F)F)c(F)c2)C(=O)N2C[C@H](OCC)C[C@H]2C(=O)NC2(CC(C)(C)C2)C(=O)N(C)[C@@H](C2CCCC2)C(=O)N(C)[C@H](C(=O)N(C)CC)CC(=O)N1C` [PP2032], the “NRAS/KRAS (KD ratio)” value in assay [1] was “A (a compound having 10 or more and less than 20 is denoted as A)”. Moreover, the “HRAS/KRAS (KD ratio)” value in assay [2] was “B (a compound having 3 or more and less than 10 is denoted as B)”. Further, the IC50 in assay [3] was 8.1 nM. The dissociation constant Kd in assay [4] worked out at 0.061 nM.
